Data as given in BindingDB's records for doi:10.1021/jm00107a050 (Merck Research Laboratories, 1991).

Biological target: T1, Dimer of Gag-Pol polyprotein [489-587] (Human immunodeficiency virus 1, UniProt P12497)
T1 construct: 489-587
Assay: Protease Inhibition Assay
Conditions: pH 5.5; 30 °C
Protocol: Sensitivity of HIV-1 protease activity to protease inhibitors was determined by a peptide substrate cleavage assay. Protease products were analyzed on a reverse-phase high-pressure liquid chromatograph.

Row | SMILES | IC50 [nM]
1 | CCC(C)C(NC(=O)[C@H](C/C=C/c1ccccc1)C[C@H](O)[C@H](Cc1ccccc1)NC(=O)OC(C)(C)C)C(=O)NCc1nc2ccccc2[nH]1 (stereo partly drawn) [tert-butyl N-[(2S,3S,5R)-5-({1-[(1H-1,3-benzodiazol-2-ylmethyl)carbamoyl]-2-methylbutyl}carbamoyl)-3-hydroxy-1-phenyl-5-[(2E)-3-phenylprop-2-en-1-yl]pentan-2-yl]carbamate] | 0.03
2 | CCC(C)C(NC(=O)[C@H](Cc1ccccc1)C[C@H](O)[C@H](Cc1ccccc1)NC(=O)OC(C)(C)C)C(=O)NCc1nc2ccccc2[nH]1 (stereo partly drawn) [tert-butyl N-[(2S,3S,5R)-5-({1-[(1H-1,3-benzodiazol-2-ylmethyl)carbamoyl]-2-methylbutyl}carbamoyl)-5-benzyl-3-hydroxy-1-phenylpentan-2-yl]carbamate] | 0.07
